Assays:
Type in all cases: in vivo
[1] = tested on: Maize weevil [Sitophilus Zeamais (Motschulsky)]; experiment: Maize weevil insecticidal test; details: adult weevils, percent in solution; 48 hours
In short: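 LC50, in percent of compound in solution, was derived from dosage-mortality curves after 48 h at about 25 °C. Ten adult weevils per container fed on four corn seeds briefly immersed in acetone:water (50:50) solutions of up to 0.01% and dried.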

[2] = tested on: Housefly [Musca domestica]; experiment: Housefly insecticidal test; details: μg per 25 female flies; mortality after 48 hours
In short: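 Dry-film exposure of 25 female houseflies per cage, 48 h; LC50 as μg per 25 flies.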

[3] = tested on: Tobacco Budworm [Heliothis virescens (Fabricius)] larvae; experiment: Tobacco budworm contact test; details: second-instar larvae, percent in solution, 5 days
In short: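 Cotton cotyledons dipped 2–3 s in compound in 50-50 acetone-water, dried, then infested with 5 second-instar larvae and held 5 days at high humidity. Mortality scored; LC50 from dosage-mortality curves, expressed as percent compound in solution, concentrations from 0.1% downward.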

[4] = tested on: Tobacco Budworm [Heliothis virescens (Fabricius)] eggs; experiment: Tobacco budworm egg test; details: 2-day old eggs, percent in solution
In short: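 Paper-towel patches of 2-day-old eggs dipped in acetone solutions of compound (0.1% downward), held on larval rearing medium at 78° F. Mortality scored once all control eggs had hatched and larvae were feeding; LC50 from dosage-mortality curves, expressed as percent compound in solution.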

[5] = tested on: Rice water weevil [Lissorhoptrus oryzophilus (Kuschel)]; experiment: Rice water weevil insecticidal test; details: topical, μg per weevil; 48 hours
Protocol: (§1) The compounds in Tables 1 and 2 above were tested for insecticidal activity using the following testing procedures. LC50 values, based on the results of these tests and calculated according to dosage-mortality curves, are expressed in Table 3.
Rice water weevil [Lissorhoptrus oryzophilus (Kuschel)]:
Test compounds were diluted in acetone. Droplets (1 μl) of test solutions were applied to the ventral abdomens of ten female adult weevils. The treated weevils were placed in containers with wet cotton balls and rice foliage. The containers were covered and kept at a temperature of about 25° C. Mortality was recorded after 48 hours. Test concentrations ranged from […] or 2.5 μg per weevil down to that at which 50% mortality occurred. The LC50 values are expressed below in Table 3 under the heading "RWW" in terms of μg of test compound per weevil.

[6] = tested on: Beet Armyworm (Spodoptera exigua); experiment: Beet armyworm insecticidal test; details: second-instar larvae, percent in solution; five days
In short: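 Five second-instar larvae per dish fed on dried sugar beet leaves previously dipped 2–3 s in acetone-water (1:1) test solutions up to 0.1%. Kept at high humidity, with deaths counted after five days; LC50 as % in solution via dosage-mortality curves.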

[7] = tested on: Cabbage Looper [Trichoplusia ni (Hubner)]; experiment: Cabbage looper insecticidal test; details: second-instar larvae, percent in solution; 3-5 days
In short: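 Squash cotyledons dipped 2-3 s in compound in 50-50 acetone-water, dried, then infested with 5 second-instar larvae and held at high humidity. Mortality scored after 3-5 days at concentrations from 0.1% downward. LC50 from dosage-mortality curves, expressed as percent compound in solution.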

[8] = tested on: Aster Leafhopper [Macrosteles fascifrens (Stal)]; experiment: Aster leafhopper insecticidal test; details: adults/nymphs, percent in solution; 48 hours
In short: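 LC50 values, given as percent of test compound in the dip solution, were derived from dosage-mortality curves over concentrations from 0.05% downward. Mortality was counted 48 hours after ten leafhopper adults/nymphs were enclosed on treated seedlings. The seedlings were oats, about 10 cm tall, briefly dipped in 50-50 acetone-water.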

[9] = tested on: Black Bean Aphid [Aphis fabae (Scop.)]; experiment: Black bean aphid insecticidal test; details: percent of test compound in sprayed solution; 48 hours
Protocol: as §1
Black Bean Aphid [Aphis fabae (Scop.)]:
Nasturtium plants (Tropaeolum sp.) approximately 5 cm tall, were transplanted into sandy loam soil in small cups and infested with 25-50 black bean aphids of mixed ages. Twenty-four hours later they were sprayed to the point of runoff with 50-50 acetone-water solutions of the test compounds. Treated plants were held in the greenhouse and mortality was recorded after 48 hours. Test concentrations ranged from 0.05% downward. The LC-50 value is expressed below in Table 3 under the heading "BBA" in terms of percent of the test compound in the sprayed solution.

| Structure (SMILES) | LC50, MW [1] [%] | LC50, HF [2] [µg] | LC50, TBW, C (TBW-C) [3] [%] | LC50, TBW, E (TBW-E) [4] [%] | LC50, RWW [5] [µg] | LC50, BAW [6] [%] | LC50, CL [7] [%] | LC50, LH [8] [%] | LC50, BBA [9] [%] |
| --- | --- | --- | --- | --- | --- | --- | --- | --- | --- |
| CC(C)C(=Nc1ccc(F)c(Cl)c1)OCc1cccc(Oc2ccc(F)cc2)c1 [Compound 89] | 0.005 | 5 | 0.0005 | 0.04 | > 2.5 | 0.009 | 0.00003 | 0.001 | – |
| CC(C)C(=Nc1ccc2c(c1)OCO2)OCc1cccc(Oc2ccccc2)c1 [Compound 180] | 0.008 | 2 | 0.003 | 0.03 | > 2.5 | 0.005 | 0.0004 | 0.0015 | – |
| CC(C)C(=Nc1ccc(F)c(Cl)c1)OCc1ccc(F)c(Oc2ccc(F)cc2)c1 [Compound 216] | 0.0017 | 2 | 0.00018 | 0.005 | 0.067 | 0.0007 | 0.000007 | 0.00025 | – |
| CC(C)C(=Nc1ccc(F)c(Cl)c1)OCc1cccc(Oc2ccc(Cl)cc2)c1 [Compound 239] | 0.006 | 14 | 0.0005 | 0.025 | > 2.5 | 0.005 | 0.00015 | 0.002 | – |
| CC(C)C(=Nc1ccc(F)c(Cl)c1)OCc1ccc(F)c(Oc2ccc(Cl)cc2)c1 [Compound 267] | 0.0027 | 8.4 | 0.0003 | 0.015 | 0.11 | 0.0012 | 0.00008 | 0.002 | – |
| CC(C)C(=Nc1ccc(Cl)cc1)OCc1cccc(Oc2ccc(Cl)cc2)c1 [Compound 269] | > 0.01 | 25 | 0.001 | 0.04 | > 2.5 | 0.0024 | 0.0003 | 0.003 | – |
| CC(C)C(=Nc1ccc(F)c(Br)c1)OCc1ccc(F)c(Oc2ccc(F)cc2)c1 [Compound 273] | 0.004 | 7 | 0.00025 | 0.015 | > 2.5 | 0.0017 | 0.000018 | 0.0003 | – |
| CC(C)C(=Nc1ccc(F)c(C(F)(F)F)c1)OCc1ccc(F)c(Oc2ccc(F)cc2)c1 [Compound 277] | > 0.01 | 4 | 0.0005 | 0.013 | 0.065 | 0.005 | 0.00001 | 0.0003 | – |
| CC(C)C(=Nc1ccc(F)c(F)c1)OCc1ccc(F)c(Oc2ccc(F)cc2)c1 [Compound 278] | 0.0063 | 3 | 0.00026 | 0.008 | 0.085 | 0.0012 | 0.00002 | 0.0003 | – |
| CC(C)C(=Nc1ccc(OC(F)(F)F)cc1)OCc1ccc(F)c(Oc2ccc(F)cc2)c1 [Compound 286] | 0.0039 | 34 | 0.00017 | 0.005 | 0.09 | 0.0004 | 0.000024 | 0.0006 | – |
| CC(C)C(=Nc1ccc(OC(F)(F)F)cc1)OCc1ccc(F)c(Oc2ccc(Cl)cc2)c1 [Compound 323] | 0.0075 | > 100 | 0.00065 | 0.045 | 0.16 | 0.0025 | 0.0006 | 0.05 | – |
| CC(C)C(=Nc1ccc(OC(F)(F)F)c(Cl)c1)OCc1cc(F)cc(Oc2ccc(F)cc2)c1 [Compound 328] | – | > 100 | – | > 0.1 | – | – | 0.03 | – | > 0.05 |
| CC(C)C(=Nc1ccc(F)c(Cl)c1F)OCc1cccc(Oc2ccc(F)cc2)c1 [Compound 352] | 0.0075 | 4.6 | 0.0004 | > 0.1 | > 2.5 | > 0.1 | 0.000065 | 0.0004 | – |
